We go through 11 compounds from US20230136702A1, “Inhibitors of Human Herpesviruses” (The Governors of the University of Alberta, priority 2020, published 2023).

The nature of data set [1]: Cytotoxicity in MRC5 cells without virus infection (CCK8). Type of data set: cell-based. The settings on record: human.
Data set [2] deals with HCMV US3-6-EGFP-HCMV-AD169 strain. Kind of data set: In vitro inhibitory (antiviral) activity against HCMV, GFP reporter in MRC5 cells. It is filed as cell-based, Human cytomegalovirus (HCMV). The conditions noted are these: Human betaherpesvirus 5, AD169, MRC5, 96 h, read-out: HCMV Antiviral EC50 range. The method, boiled down:
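MRC5 cells were infected with GFP-reporter virus (MOI=0.1) alongside compounds (8 points, 3-fold dilutions, duplicate; top 40 μM test compounds, 100 μM ganciclovir; 0.5% DMSO final) for 4 days at 37 °C. GFP fluorescence inhibition, normalized to virus and cell controls, gave EC50; viability gave CC50.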

The next data set deals with T1, hERG potassium channel (Homo sapiens, UniProt Q12809).
T1 construct: host or cells: CHO cells stably expressing hERG
Kind of data set: Inhibition of hERG potassium channel, automated patch clamp (SyncroPatch 384PE) in CHO cells. Type of data set: cell-based. The settings on record: CHO cells stably expressing hERG, room temperature, 0.494-40.00 μM; read-out: CHO-hERG Activity Range. In general terms: hERG is a cardiac potassium channel; its block is linked to QT prolongation.

In data set [3] the target is T2, HCMV DNA polymerase (UL54) (Human cytomegalovirus, UniProt P08546).
T2 construct: 6His (C); made in house; host or cells: Sf9 insect cells (baculovirus, pFastBac)
The data set is described as follows: HCMV DNA polymerase enzyme inhibition assay (ProFoldin, fluorescence). The settings on record: 37° C., duplicate, max 40 μM. It is filed as biochemical.

The structures appear in SMILES notation. Structures can show the parent of a compound that is named as a salt. Where two headings read alike, the source gives them in different places.

T1 sequence (Q12809 whole entry): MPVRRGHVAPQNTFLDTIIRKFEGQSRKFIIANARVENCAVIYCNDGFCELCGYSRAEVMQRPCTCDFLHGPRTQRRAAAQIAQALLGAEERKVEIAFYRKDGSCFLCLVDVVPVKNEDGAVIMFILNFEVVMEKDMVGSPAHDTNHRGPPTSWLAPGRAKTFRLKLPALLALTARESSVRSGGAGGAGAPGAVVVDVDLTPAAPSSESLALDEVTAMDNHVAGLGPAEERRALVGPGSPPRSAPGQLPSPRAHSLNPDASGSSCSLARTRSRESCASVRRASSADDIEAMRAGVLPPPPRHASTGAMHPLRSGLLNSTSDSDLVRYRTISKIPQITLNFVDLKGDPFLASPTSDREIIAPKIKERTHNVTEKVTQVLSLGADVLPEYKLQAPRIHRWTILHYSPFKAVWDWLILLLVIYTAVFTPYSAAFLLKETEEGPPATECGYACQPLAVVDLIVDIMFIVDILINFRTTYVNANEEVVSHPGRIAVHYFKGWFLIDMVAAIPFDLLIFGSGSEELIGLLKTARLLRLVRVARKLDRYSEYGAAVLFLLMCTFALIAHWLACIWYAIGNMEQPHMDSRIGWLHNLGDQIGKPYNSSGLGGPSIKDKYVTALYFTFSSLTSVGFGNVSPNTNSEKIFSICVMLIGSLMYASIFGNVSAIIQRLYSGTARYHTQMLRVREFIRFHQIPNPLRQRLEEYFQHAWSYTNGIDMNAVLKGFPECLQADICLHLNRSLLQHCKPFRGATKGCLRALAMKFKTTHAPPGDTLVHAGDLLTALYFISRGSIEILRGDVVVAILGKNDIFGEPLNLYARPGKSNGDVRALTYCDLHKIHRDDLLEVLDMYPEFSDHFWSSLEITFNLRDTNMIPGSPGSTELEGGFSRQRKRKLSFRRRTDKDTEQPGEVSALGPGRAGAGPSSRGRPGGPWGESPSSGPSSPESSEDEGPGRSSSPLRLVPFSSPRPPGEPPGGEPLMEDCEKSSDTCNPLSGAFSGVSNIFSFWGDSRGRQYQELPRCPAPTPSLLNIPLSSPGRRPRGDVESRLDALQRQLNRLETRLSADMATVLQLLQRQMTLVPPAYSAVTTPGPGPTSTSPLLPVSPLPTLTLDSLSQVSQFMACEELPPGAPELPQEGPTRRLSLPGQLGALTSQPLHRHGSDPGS
T2 sequence (P08546 whole entry): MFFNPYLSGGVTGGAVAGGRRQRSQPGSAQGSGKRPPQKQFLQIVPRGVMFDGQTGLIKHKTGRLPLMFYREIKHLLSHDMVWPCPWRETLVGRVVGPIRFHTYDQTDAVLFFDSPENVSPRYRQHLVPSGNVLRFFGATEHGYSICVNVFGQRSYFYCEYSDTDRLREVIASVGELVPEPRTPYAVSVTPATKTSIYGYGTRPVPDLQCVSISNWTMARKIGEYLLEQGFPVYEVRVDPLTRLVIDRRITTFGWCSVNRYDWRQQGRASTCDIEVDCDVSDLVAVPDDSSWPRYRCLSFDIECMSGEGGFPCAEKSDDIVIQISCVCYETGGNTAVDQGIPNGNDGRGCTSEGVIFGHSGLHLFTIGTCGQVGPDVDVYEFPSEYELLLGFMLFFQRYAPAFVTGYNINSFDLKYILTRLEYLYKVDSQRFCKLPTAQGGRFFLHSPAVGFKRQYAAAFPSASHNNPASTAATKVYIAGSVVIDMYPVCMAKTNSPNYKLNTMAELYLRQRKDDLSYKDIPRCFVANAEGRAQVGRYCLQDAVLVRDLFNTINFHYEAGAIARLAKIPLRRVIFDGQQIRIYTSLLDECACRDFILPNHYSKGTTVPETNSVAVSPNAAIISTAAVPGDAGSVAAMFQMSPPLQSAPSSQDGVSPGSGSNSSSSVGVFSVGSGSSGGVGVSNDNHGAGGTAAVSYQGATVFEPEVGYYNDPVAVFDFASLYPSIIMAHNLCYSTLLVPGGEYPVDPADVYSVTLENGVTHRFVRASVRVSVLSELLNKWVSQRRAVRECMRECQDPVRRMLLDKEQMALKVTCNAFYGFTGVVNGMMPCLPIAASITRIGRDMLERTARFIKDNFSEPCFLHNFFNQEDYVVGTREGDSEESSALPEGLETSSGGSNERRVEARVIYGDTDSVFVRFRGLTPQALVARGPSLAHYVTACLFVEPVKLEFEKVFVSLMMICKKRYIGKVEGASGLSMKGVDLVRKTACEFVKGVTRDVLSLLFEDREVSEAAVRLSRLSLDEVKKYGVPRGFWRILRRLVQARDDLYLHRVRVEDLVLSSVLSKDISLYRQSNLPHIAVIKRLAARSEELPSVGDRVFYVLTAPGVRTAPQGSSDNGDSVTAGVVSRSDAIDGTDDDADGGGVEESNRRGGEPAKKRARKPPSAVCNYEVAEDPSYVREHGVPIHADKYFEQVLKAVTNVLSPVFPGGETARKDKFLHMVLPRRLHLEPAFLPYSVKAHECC

Consider `CC(C(=O)O)N1CCN(c2cnc3c(cc(C(=O)NCc4ccc(Cl)cc4)c(=O)n3CC(=O)N3CC(C)(C)C3)n2)C1=O` (centres unmarked) [Compound 46, 2-[3-(7-{[(4-chlorophenyl)methyl]carbamoyl}-5-[2-(3,3-dimethylazetidin-1-yl)-2-oxoethyl]-6-oxo-5,6-dihydropyrido[2,3-b]pyrazin-2-yl)-2-oxoimidazolidin-1-yl]propanoic acid], for which the CC50 at 4 days in data set [1] is above 40 µM. For the same compound, the EC50 in data set [2] was below 1000 nM. Moreover, the IC50 on hERG potassium channel is above 10 µM; in data set [3] it was below 1000 nM.
In the case of `CN(C)CCN1CCN(c2cnc3c(cc(C(=O)NCc4ccc(Cl)cc4)c(=O)n3CC(=O)N3CC(C)(F)C3)n2)C1=O` [Compound 42, N-[(4-chlorophenyl)methyl]-2-{3-[2-(dimethylamino)ethyl]-2-oxoimidazolidin-1-yl}-5-[2-(3-fluoro-3-methylazetidin-1-yl)-2-oxoethyl]-6-oxo-5,6-dihydropyrido[2,3-b]pyrazine-7-carboxamide], the 50% cytotoxic concentration (CC50) at 4 days in data set [1] is above 40 µM. For the same compound, the EC50 in data set [2] is below 1000 nM. For the same compound, the IC50 at hERG potassium channel was above 10 µM; in data set [3], above 1000 nM.
Compound `CC1(F)CN(C(=O)Cn2c(=O)c(C(=O)NCc3ccc(Cl)cc3)cc3nc(N4CCOC4=O)cnc32)C1` [Compound 2, N-[(4-chlorophenyl)methyl]-5-[2-(3-fluoro-3-methylazetidin-1-yl)-2-oxoethyl]-6-oxo-2-(2-oxo-1,3-oxazolidin-3-yl)-5,6-dihydropyrido[2,3-b]pyrazine-7-carboxamide] returned a CC50 at 4 days in data set [1] below 40 µM. Besides, the EC50 in data set [2] was below 1000 nM. Moreover, the IC50 on hERG potassium channel is below 10 µM; in data set [3] it was below 1000 nM.
As to `CC(C)[C@H](N)C(=O)NCCN1CCN(c2cnc3c(cc(C(=O)NCc4ccc(Cl)cc4)c(=O)n3CC(=O)N3CC(C)(F)C3)n2)C1=O` [Compound 37, N-[(4-chlorophenyl)methyl]-5-[2-(3-fluoro-3-methylazetidin-1-yl)-2-oxoethyl]-6-oxo-2-{2-oxo-3-[2-(L-valylamino)ethyl]imidazolidin-1-yl}-5,6-dihydropyrido[2,3-b]pyrazine-7-carboxamide-hydrochloride salt], the CC50 at 4 days in data set [1] (MRC5 cells, 4 days, CCK8, highest concentration 40 μM, read-out: MCR5 CC50) was above 40 µM. The EC50 in data set [2] is below 1000 nM. Moreover, the IC50 on hERG potassium channel was above 10 µM; in data set [3] it was above 1000 nM.
For the compound `CN(C)C(=O)CN1CCN(c2cnc3c(cc(C(=O)NCc4ccc(Cl)cc4)c(=O)n3CC(=O)N3CC(C)(F)C3)n2)C1=O` [Compound 21], the CC50 at 4 days in data set [1] is above 40 µM. Moreover, the EC50 in data set [2] was below 1000 nM. Besides, the IC50 on hERG potassium channel is above 10 µM; in data set [3] it was below 1000 nM.
`CC1(F)CN(C(=O)Cn2c(=O)c(C(=O)NCc3ccc(Cl)cc3)cc3nc(N4CCN(CCNS(C)(=O)=O)C4=O)cnc32)C1` [Compound 16, N-[(4-chlorophenyl)methyl]-5-[2-(3-fluoro-3-methylazetidin-1-yl)-2-oxoethyl]-2-(3-{2-[(methanesulfonyl)amino]ethyl}-2-oxoimidazolidin-1-yl)-6-oxo-5,6-dihydropyrido[2,3-b]pyrazine-7-carboxamide] yielded a CC50 at 4 days in data set [1] above 40 µM. For the same compound, the EC50 in data set [2] was above 1000 nM. Besides, the IC50 was above 10 µM at hERG potassium channel and below 1000 nM in data set [3].
On the same counts, the results for `CN1C(=O)CN(c2cnc3c(cc(C(=O)NCc4ccc(Cl)cc4)c(=O)n3CC(=O)N3CC(C)(F)C3)n2)C1=O` [Compound 14, N-[(4-chlorophenyl)methyl]-5-[2-(3-fluoro-3-methylazetidin-1-yl)-2-oxoethyl]-2-(3-methyl-2,4-dioxoimidazolidin-1-yl)-6-oxo-5,6-dihydropyrido[2,3-b]pyrazine-7-carboxamide] are above 40 µM, above 1000 nM, above 10 µM and below 1000 nM.
On to `CC1CCN(c2cnc3c(cc(C(=O)NCc4ccc(Cl)cc4)c(=O)n3CC(=O)N3CC(C)(F)C3)n2)C1=O` (centres unmarked) [Compound 4, N-[(4-chlorophenyl)methyl]-5-[2-(3-fluoro-3-methylazetidin-1-yl)-2-oxoethyl]-2-(3-methyl-2-oxopyrrolidin-1-yl)-6-oxo-5,6-dihydropyrido[2,3-b]pyrazine-7-carboxamide], for which, in data set [1], the CC50 at 4 days is above 40 µM. In addition, the EC50 in data set [2] was below 1000 nM. For the same compound, the figures for the IC50 (at hERG potassium channel; in data set [3]) were below 10 µM and below 1000 nM, respectively.
In the case of `CC1(F)CN(C(=O)Cn2c(=O)c(C(=O)NCc3ccc(Cl)cc3)cc3nc(N4CCN(CCN)C4=O)cnc32)C1` [Compound 6], the CC50 at 4 days in data set [1] was above 40 µM. Moreover, in data set [2], the EC50 was below 1000 nM. Moreover, the IC50 on hERG potassium channel is above 10 µM; in data set [3] it was below 1000 nM.
In data set [1], `CC(=O)NCCN1CCN(c2cnc3c(cc(C(=O)NCc4ccc(Cl)cc4)c(=O)n3CC(=O)N3CC(C)(F)C3)n2)C1=O` [Compound 19] had a CC50 at 4 days above 40 µM. Moreover, the EC50 in data set [2] was above 1000 nM. Moreover, the values for the IC50 (at hERG potassium channel; in data set [3]) were above 10 µM and below 1000 nM, respectively.
Consider `CC1(C)CN(C(=O)Cn2c(=O)c(C(=O)NCc3ccc(Cl)cc3)cc3nc(N4CCN(C(C)(C)C(=O)O)C4=O)cnc32)C1` [Compound 43, 2-[3-(7-{[(4-chlorophenyl)methyl]carbamoyl}-5-[2-(3,3-dimethylazetidin-1-yl)-2-oxoethyl]-6-oxo-5,6-dihydropyrido[2,3-b]pyrazin-2-yl)-2-oxoimidazolidin-1-yl]-2-methylpropanoic acid], for which, in data set [1], the CC50 at 4 days is above 40 µM. In addition, the EC50 in data set [2] was below 1000 nM. Besides, the IC50 was above 10 µM on hERG potassium channel and below 1000 nM in data set [3].

The CC50 is the concentration that lowers cell viability or growth by half. The term EC50 denotes the concentration giving half of the maximal effect.
